Data from patent US10717758B2, “D-amino acid compounds for liver disease” (priority 2012, dated 2020).
Read-outs that look alike come from different tables or passages of the source.

Key:
HCV genotype 1b replicon = assay: HCV replicon assay; assay type: cell-based
Protocol: Huh-7-derived cell line (Zluc) that harbors an HCV genotype 1b replicon and a luciferase reporter gene was grown in Dulbecco's Modified Eagle Medium (DMEM) supplemented with 10% fetal bovine serum, 2 mM GlutaMAX, 1% MEM nonessential amino acids, 100 IU/mL penicillin, 100 μg/mL streptomycin, and 0.5 mg/mL Geneticin® (G418). For dose response testing the cells were seeded in 96-well plates at 7.5×10^3 cells per well in a volume of 50 μL, and incubated at 37° C./5% CO2. Drug solutions were made up freshly in Huh-7 media as 2× stocks. Ten additional 5-fold dilutions were prepared from these stocks in DMEM without G418. At least three hours after Zluc cells were seeded, drug treatment was initiated by adding 50 μL of drug dilutions to the plates in duplicate. Final concentrations of drug ranged from 100 μM to […]. Cells were then incubated at 37° C./5% CO2. Alternatively, compounds were tested at two concentrations (1 μM and 10 μM). […] For this, media was removed from the plates via gentle tapping. Fifty microliters of ONE-glo luciferase assay reagent was added to each well. The plates were shaken gently for 3 min at room temperature and luminescence was measured on a Victor^3 V 1420 multilabel counter (Perkin Elmer) with a 1 second read time using a 700 nm cut-off filter. The EC50 values were calculated from dose response curves from the resulting best-fit equations determined by Microsoft Excel and XLfit 4.1 software. When screening at two fixed concentrations, the results were expressed as % inhibition at 1 μM and 10 μM.

cathepsin A (CatA) = biological target: T1, cathepsin A (CatA) (Homo sapiens, UniProt P10619); assay: Hydrolysis of prodrugs by Cathepsin A; assay type: in vitro ADME; settings: time not given; 100 μM compound, 37° C., pH 6.0
T1 sequence (P10619 29-326 limits assumed): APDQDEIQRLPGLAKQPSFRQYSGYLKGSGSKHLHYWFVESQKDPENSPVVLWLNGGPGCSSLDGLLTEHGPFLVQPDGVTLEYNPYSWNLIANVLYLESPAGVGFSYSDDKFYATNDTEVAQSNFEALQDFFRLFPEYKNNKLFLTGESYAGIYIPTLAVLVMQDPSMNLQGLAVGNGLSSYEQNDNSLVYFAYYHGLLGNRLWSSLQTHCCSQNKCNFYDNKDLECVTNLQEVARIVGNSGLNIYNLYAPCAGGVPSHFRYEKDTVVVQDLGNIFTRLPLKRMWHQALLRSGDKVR
T1 sequence (P10619 327-480 limits assumed): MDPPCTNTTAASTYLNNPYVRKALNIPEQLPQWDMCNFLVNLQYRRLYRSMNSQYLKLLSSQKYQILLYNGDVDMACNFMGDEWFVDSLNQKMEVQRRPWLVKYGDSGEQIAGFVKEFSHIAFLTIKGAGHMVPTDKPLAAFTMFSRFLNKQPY
Protocol: CatA, cathepsin L (CatL) and CES1 were purchased from R & D Systems (Minneapolis, Minn.). Prior to the enzymatic hydrolysis reactions, CatA was activated according to the manufacturer's instruction. Briefly, CatA (0.05 μg/μL) was incubated with CatL (0.005 μg/μL) for 30 min at 37° C. in 25 mM MES pH 6.0 containing 5 mM DTT. The reaction was stopped by addition of the CatL specific inhibitor E64 (10 μM).
The CatA assay was performed at 37° C. The reaction mixture contained 25 mM MES buffer pH 6.0, 100 mM NaCl, 4 mM DTT and 100 μM of the compound. The reaction was started by addition of the activated CatA enzyme to a final concentration of 0.005 μg/μL. […] Reactions were stopped by mixing the sample with an equal volume of ice-cold methanol, and were loaded on a HPLC for analysis.

[1] = Liver TP formation and liver targeting in vivo (Example 6, Table 7); set-up: species or system mice and monkey
From the text: The in vitro antiviral inactivity of Z4 and Z2 is thought to reflect an inability of Huh-7 replicon cells to metabolize the prodrug moiety.

[2] = biological target: T2, carboxylesterase 1 (CES1) (Homo sapiens, UniProt P23141); assay: Hydrolysis of prodrugs by Carboxylesterase 1; assay type: in vitro ADME; settings: for CES1 hydrolysis: 100 μM compound, 37° C., pH 7.5
T2 construct: purchased R & D Systems (Minneapolis, Minn.)
T2 sequence (P23141 18-567): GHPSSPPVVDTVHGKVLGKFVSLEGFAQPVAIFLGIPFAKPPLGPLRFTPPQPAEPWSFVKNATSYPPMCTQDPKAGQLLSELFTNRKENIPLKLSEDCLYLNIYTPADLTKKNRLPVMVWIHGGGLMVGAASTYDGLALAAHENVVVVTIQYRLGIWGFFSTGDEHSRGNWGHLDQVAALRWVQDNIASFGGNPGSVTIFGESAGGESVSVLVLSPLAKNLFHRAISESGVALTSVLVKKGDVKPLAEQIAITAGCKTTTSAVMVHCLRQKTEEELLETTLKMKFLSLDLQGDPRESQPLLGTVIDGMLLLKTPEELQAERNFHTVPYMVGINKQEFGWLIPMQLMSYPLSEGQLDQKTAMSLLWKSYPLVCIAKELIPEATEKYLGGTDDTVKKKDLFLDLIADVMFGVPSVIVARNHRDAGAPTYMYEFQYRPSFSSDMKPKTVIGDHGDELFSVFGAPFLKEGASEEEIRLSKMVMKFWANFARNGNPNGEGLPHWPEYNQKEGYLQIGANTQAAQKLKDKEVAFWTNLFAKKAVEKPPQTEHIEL
Protocol: CES1 assay was performed at 37° C. in the reaction mixture containing 50 mM Tris/HCl buffer pH 7.5 and 100 μM of the compound. Reaction was started by addition of the CES1 to the final concentration 0.01 μg/mL. 100 μL aliquots were taken after 0.5 min, 3 hrs and 21 hrs of the incubation and the reaction was stopped by mixing with 100 μl of the ice-cold methanol prior to HPLC analysis.
Samples were analyzed by HPLC using 5 μC-18, 4.6×250 mm Phenomenex® Columbus column (Phenomenex USA, Calif.). The mobile phase consisted of buffer A (25 mM potassium phosphate with 5 mM tetrabutylammonium dihydrogen phosphate pH 6.3) and buffer B (100% methanol).

Huh-7 cells = assay: Release of active metabolite in Huh-7 cells; assay type: in vitro ADME, human; settings: Table 7
Protocol: Huh-7 cells were plated in 1 mL culture medium (DMEM, containing glucose, L-glutamine and sodium pyruvate, 10% FBS, 100 IU/mL penicillin, 100 μg/mL streptomycin, 2 mM GlutaMAX, 1% MEM non-essential amino acids) at the concentration 0.8, 0.4 and 0.2 million cells per well on 6 well plates for 24, 48 and 72 hr treatment, respectively. Plated cells were incubated overnight at 37° C. in an incubator.
The following morning test compound was diluted to 20 μM from a stock solution in DMSO in fresh culture medium pre-warmed to 37° C. and 1 mL of the solution/well was added to cells. A final medium volume per well was 2.0 mL, test compound concentration in well was 10 μM and final DMSO concentration was 0.1%.
After 24, 48 or 72 hr, the medium was carefully removed and cell monolayers were washed twice with 2 mL ice-cold PBS per well. Following the last wash, all PBS was carefully removed and 1.0 mL of extraction solution (ice-cold 70% methanol) added. The plate was tightly covered with Parafilm, plastic plate cover and Parafilm again and an intracellular content was extracted at −20° C. for 24 hr.
After 24 hr the extracts were transferred into polypropylene microfuge tubes and dry on a refrigerated centrivap concentrator. Dry residues were reconstituted in 250 μL of HPLC-grade water and centrifuged at 16,000×g for 10 min. Aliquots (100 μL each) of the supernatants were transferred into a 96 well plate and internal standard (4 ng/mL final concentration) was added as the internal standard (IS) for LC-MS/MS analysis.

[3] = Plasma nucleoside and liver triphosphate PK after single oral dose (Example 4); assay type: in vivo, CD-1 mice; settings: at 1 μmol/kg, single oral dose 10 mg/kg in PEG 200
Protocol: Plasma samples were analyzed for nucleoside by LC-MS/MS. The internal standard (IS) was either 2′-MeG-D3 or tiapride. For protein precipitation and extraction, each plasma sample (50 μL) was treated with 500 μL of 0.2% formic acid in acetonitrile and 20 μL of the internal standard working solution. After vortexing and centrifugation, 500 μL of the sample extracts were transferred to a new plate, dried under N2 at ˜28° C. and reconstituted with 75 μL of 0.2% FA in water. The extracts were chromatographed on an Aquasil C18 column using a gradient system of 0.2% formic acid in water and acetonitrile. The analytes were detected and quantified by tandem mass spectrometry in positive ion mode on an MDS Sciex API5000 equipped with a Turbo Ionspray® interface. The calibration range was 0.500 (LLOQ) to 200 ng/mL in mouse plasma.
Internal standard solution was added to the homogenate followed by neutralization with 20% ammonium hydroxide solution and addition of 500 μL 1% formic acid. The tissue samples were extracted by weak anion exchange solid phase extraction (SPE). Post extraction, the eluates were evaporated under nitrogen, followed by reconstitution before injection onto the LC-MS/MS system.

fresh mouse hepatocyte = assay: Release of active metabolite in primary hepatocytes (mouse); assay type: in vitro ADME; settings: 10 μM
Protocol: Plates of fresh human and mouse hepatocytes were obtained on ice. The medium was removed and replaced with hepatocyte culture medium (William's E supplemented with penicillin-streptomycin, 1% L-glutamine, 1% insulin-transferrin-selenium and 0.1 μM Dexamethasone (Invitrogen) or with Invitro GRO HI medium complemented with Torpedo antibiotics (Celsis)). Cells were left overnight in an incubator at 37° C. to acclimatize to culture and the medium.
Hepatocyte incubations were conducted at a final volume of 0.5 mL hepatocyte culture medium/well (0.8 million cells/well for human and 0.5 million cells/well for mouse; 12 well plate no overlay, collagen coat). Culture medium from overnight incubation of cells was removed and replaced with fresh medium, pre-warmed to 37° C., containing 10 μM of test compound from a stock solution in DMSO (final DMSO concentration was 0.1%). At each specific time point, incubation medium was removed and cell monolayers were carefully washed two times with ice-cold PBS. Following the last wash, all PBS was carefully removed and 1.0 mL of extraction solution (ice-cold 70% methanol/30% water) added. Cells were scraped off and suspended in the extraction solution, transferred to 2 mL polypropylene microfuge tubes and intracellular contents extracted overnight at −20° C.
After the overnight treatment the cellular extracts were prepared by centrifugation at 16,000×g for 10 min to remove cellular debris. The remaining sample was then dried using a refrigerated centrivap concentrator. Dry extracts were reconstituted in 1000 μL of HPLC-grade water and centrifuged at 16,000×g for 10 min. Aliquots (100 μL each) of the supernatant were transferred into a 96 well plate and internal standard (4 ng/mL final concentration) was added as the internal standard (IS) for LC-MS/MS analysis.
The incubation time points were 6, 24 and 48 hours for human hepatocytes and 1, 4, 8, 12 and 24 hours for mouse hepatocytes.

[4] = Cytotoxicity evaluation in Zluc cells (CellTiter-Blue); assay type: cell-based, human; settings: human, read-out: HCV Replicon CC50
Protocol: For cytotoxicity evaluation, Zluc cells were treated with compound as described herein, and cell viability was monitored using the CellTiter-Blue Cell Viability Assay (Promega) by adding 20 μL of the assay solution to each well. The plates were then incubated at 37° C./5% CO2 for at least 3 hours.

[5] = Hepatitis C virus, Huh-7, read-out: EC50 (replicon reproduction), genotype 1b HCV replicon-bearing human hepatoma cell line (Huh-7)
[6] = Hepatitis C virus, 72 h, Zluc (Huh-7-derived) cells, luciferase reporter, 72 hours, read-out: HCV Replicon EC50

Compound	EC50 (HCV genotype 1b replicon; [5]) [µM]	CatA hydrolysis (cathepsin A (CatA)) [%]	Liver:plasma ratio of drug metabolites [1]	Hydrolysis by CES1 [2]	CES1 hydrolysis ([2]; 3 h) [% @]	CES1 hydrolysis ([2]; 21 h)	Huh-7 AUC0-72 (Huh-7 cells) [pmol*hr/10^6cells]	MsH AUC (fresh mouse hepatocyte) [pmol.hr/mill cells]	MsH Cmax (fresh mouse hepatocyte) [pmol/mill cells]	EC50 (HCV genotype 1b replicon; [6]) [µM]	CC50 [4] [µM]	also measured
CC(C)OC(=O)[C@@H](C)NP(=O)(OC[C@H]1O[C@@H](n2ccc(=O)[nH]c2=O)[C@](C)(Cl)[C@@H]1O)Oc1ccccc1 (single isomer, unassigned) [Compound 40i Diastereomer 1]	> 50	0	high liver:plasma ratio of drug metabolites	processed	23	3 h; 49%	436.9					
CC(C)OC(=O)[C@@H](C)N[P@@](=O)(OC[C@H]1O[C@@H](n2ccc(=O)[nH]c2=O)[C@](C)(F)[C@@H]1O)Oc1ccccc1 [Compound (804a) Ia (RP isomer), D-Alanine, N—((RP,2′R)-2′-deoxy-2′-fluoro-2′-methyl-P-phenyl-5′-uridylyl)-, 1-methylethyl ester]	> 50	0	high liver:plasma ratio of drug metabolites	processed	10	3 h; 26%	720.4					EC50 (HCV genotype 1b replicon; Hepatitis C virus, Table 7, read-out: EC50): > 50 µM
CC(C)OC(=O)[C@@H](C)NP(=O)(OC[C@H]1O[C@@H](n2ccc(=O)[nH]c2=O)[C@](C)(Cl)[C@@H]1O)Oc1ccccc1 (single isomer, unassigned; diastereomer 2) [40i Diastereomer 2]								1073	89			Ms Plasma nucleoside AUC [3]: 0.0036 M·s; Cmax ([3]; read-out: Ms Plasma nucleoside Cmax): 64 nM
CCOc1nc(N)nc2c1ncn2[C@@H]1O[C@H](COP(=O)(N[C@H](C)C(=O)OC(C)C)Oc2ccccc2)C[C@@]1(C)F (single isomer, unassigned) [502a Diastereomer 1]										1 to 10	< 50	
CC(C)OC(=O)[C@@H](C)NP(=O)(OC[C@H]1O[C@@H](n2ccc(=O)[nH]c2=O)[C@](C)(Cl)[C@@H]1O)Oc1ccccc1 (single isomer, unassigned) [40i Diastereomer 1]								4052	198	> 10	> 50	
CC(C)OC(=O)[C@@H](C)NP(=O)(OC[C@H]1O[C@@H](n2ccc(=O)[nH]c2=O)[C@](C)(Cl)[C@@H]1O)Oc1ccccc1 (single isomer, unassigned; diastereomer 2) [Compound 40i Diastereomer 2]		0				4.5% @						EC50 (HCV genotype 1b replicon; Table 7, read-out: EC50): 7 µM; Liver TP [1]: 4400 pmol·h/g
